The target in experiment [1] is T1, RARα ligand-binding domain (GST-RAR-α-LBD) (Homo sapiens, UniProt P10276).
T1 construct: purchased Invitrogen
T1 sequence (P10276 183-417 limits assumed): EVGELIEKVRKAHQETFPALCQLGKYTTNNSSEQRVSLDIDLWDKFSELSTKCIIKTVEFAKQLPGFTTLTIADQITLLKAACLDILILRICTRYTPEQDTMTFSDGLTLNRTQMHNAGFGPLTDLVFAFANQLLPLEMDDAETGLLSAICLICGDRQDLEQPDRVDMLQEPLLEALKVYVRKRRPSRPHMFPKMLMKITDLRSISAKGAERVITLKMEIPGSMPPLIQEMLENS
Description: LanthaScreen TR-FRET RARα co-activator (receptor binding) assay. It is filed as biochemical. The note with it: for EC50: read-out: EC50 (95% confidence range) RARα; for binding-curve upper asymptote (coactivator recruitment), RARα: in words, Fig. 6A. How it is done: (§1) These predictions were tested through a receptor-binding assay for each RAR isotype (Fig. 6), where the assay signal is dependent on two parameters: the binding affinity of ligand to the RAR LBD, and the affinity of the coactivator for the ligand-LBD complex. For this assay, binding curves and variation in level of the upper asymptote can reflect differences in co-activator affinity for the ligand-LBD complex; variation in affinity of ligand for LBD shifts the midpoint (EC50) of the binding curve, whereas changes in the level of the upper asymptote may result from changes in coactivator affinity for the ligand-LBD complex alone, or in combination with changes in affinity for ligand with LBD.[23]
(§2) The binding interaction of each retinoid with RARα, β and γ were determined in vitro by time-resolved fluorescence resonance energy transfer (TR-FRET) using the LanthaScreen TR-FRET RARα, RARβ, and RARγ co-activator assays according to the manufacturer’s (Invitrogen™) instructions.[23] This uses a terbium-labeled anti-GST antibody, a fluorescein-labeled co activator peptide, and RARα/β/γ ligand-binding domains (LBD) that are tagged with glutathione-S-transferase (GST) in a homogenous assay format. All experiments were performed in black, 384-well low-volume plates in the dark at RT with a 4 h incubation time. The final assay volume was 20 μL and all dilutions were carried out using TR-FRET assay buffer, with a final DMSO concentration of 1%. A mixture of either 3.5 nM GST-RAR-α-LBD or 2.5 nM GST-RAR-β-LBD or 3 nM GST-RAR-γ-LBD with 62.5 nM Tb-anti GST antibody and 30 μM fluorescein-labeled peptide and retinoid or DMSO control was added to each of the wells. Each ligand assay was performed in duplicate and measured using a PHERAstar FS Microplate Reader (BMG Labtech, Ortenberg, Germany) with instrument settings as described in the manufacturer’s instructions for LanthaScreen assays. The TR-FRET signal was expressed as the ratio of the signals at 520 nm and 490 nm. The data were fitted to a three-parameter ligand-binding curve using SigmaPlot (version 12.5, Systat Software Inc., San Jose CA) and normalized to the lower asymptote of each binding curve. […] Since the assay involves interactions between ligand and LBD, and ligand-dependent interactions between the LBD and fluorescein-labeled co activator, the binding assay data were interpreted by simulating these coupled chemical reactions using the biochemical simulator COPASI version 4.3.[23], [54]
(§3) The readout of the Lanthascreen TR-FRET binding assay is based on a Forster resonance energy transfer (FRET) signal generated from the interaction between a terbium-labelled anti-glutathione-S-transferase (GST) antibody and a fluorescein-labelled coactivator peptide. The RAR ligand-binding domain (LBD) is a GST fusion protein and interaction between the LBD and the fluorescein-labelled coactivator peptide is driven by the binding of ligand to the LBD, and detected by the FRET signal from the terbium/fluorescein interaction when the terbium-labelled anti-GST binds the LBD fusion protein. The output of the assay thus relies on two binding interactions: ligand with LBD, and ligand-bound LBD with the coactivator peptide. As both interactions may be affected by the fit of ligand to the binding pocket of the LBD, we used the biochemical pathway simulator COPASI^1 to build a simple model of how the FRET signal output in the assay will vary according to differential changes in the kinetics of the two binding interactions. Reactions were modelled deterministically using mass-action kinetics described by ordinary differential equations (ODE) within COPASI.^1 This model enables us to assess the effect of different rate constants and varying ligand concentration on the formation of the final ternary complex that is the read-out from the Lanthascreen TR-FRET assay.

For experiment [2], the target named is T2, RARγ ligand-binding domain (GST-RAR-γ-LBD) (Homo sapiens, UniProt P13631).
T2 construct: purchased Invitrogen
T2 sequence (P13631 185-419 limits assumed): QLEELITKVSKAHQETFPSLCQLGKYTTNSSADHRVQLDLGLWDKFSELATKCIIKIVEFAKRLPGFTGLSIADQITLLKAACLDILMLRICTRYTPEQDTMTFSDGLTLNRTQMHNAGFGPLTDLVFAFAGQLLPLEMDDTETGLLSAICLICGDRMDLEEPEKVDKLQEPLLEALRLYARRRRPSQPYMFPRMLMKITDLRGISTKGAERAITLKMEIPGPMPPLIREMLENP
In words: LanthaScreen TR-FRET RARγ co-activator (receptor binding) assay. The note with it: for EC50: estimated EC50, TR-FRET co-activator assay, 4 h incubation, read-out: EC50 (95% confidence range) RARγ; for binding-curve upper asymptote (coactivator recruitment), RARγ: in words, Fig. 6C. It is filed as biochemical. How it is done: as §1, §2, §3

The next experiment relates to TERA2.cl.SP12 cells. Description: Immunocytochemistry for A2B5, TUJ-1 and cytokeratin 8. It is filed as cell-based, human. Particulars: for expression of epithelial phenotype marker cytokeratin 8: 10 μM, 1, 2 and 3 weeks, Fig. 7D; for neuronal differentiation by TUJ-1 staining: up to 3 weeks. How it is done:
Third, we carried out assessment of protein expression using immunofluorescent techniques on cultures of TERA2.cl.SP12 cells treated with retinoids.
TERA2.cl.SP12 cells were seeded at 5000 cells per well on poly-D-lysine (25 μg/ml) coated cover slips in 6-well plates. Cells were treated with each retinoid at a concentration of 10 μM for 7, 14 and 21 days (the media was changed every 3–4 days). Cells were also treated with 1% DMSO for the same time periods as a […] control. At the end of the treatment period, cells were fixed (4% para-formaldehyde in PBS for 30 min at room temperature (RT) and rinsed with PBS. One set of experiments was used for the cell surface marker A2B5 (diluted 1:100, R&D systems), and the other set was prepared for intracellular staining using 1% Triton-X-100 (Sigma Aldrich) in PBS as a permeabilizing agent for 10 min at RT. Non-specific labeling was blocked by incubation with a solution of 1% goat serum (Sigma Aldrich) containing 0.2% Tween-20 (Sigma Aldrich) in PBS for one hour at RT. The primary antibodies β-III tubulin antibody (TUJ-1) (1:200, Affymetrix eBioscience) and CK-8 antibody (1:500, Affymetrix eBioscience) were diluted in blocking solution and incubated with the cells for 1 h at RT. After washing three times for 15 min with PBS, cells were incubated for 1 h in the dark with anti-mouse FITC-conjugated secondary antibody IgM (1:128, Sigma Aldrich) for A2B5 staining, and anti-mouse Alexafluor 488 IgG (1:600, Invitrogen) for TUJ-1 and CK-8 staining. Hoechst 33,342 nuclear staining dye (1:1000, Molecular Probes) was dissolved in blocking solution after the secondary antibody staining step for nuclear staining.
Immunocytofluorescent images of fixed cells were visualized using a Leica SP5 confocal microscope. Scale bars are shown at 25 μm.

Setting [3] is: estimated EC50, TR-FRET co-activator assay, 4 h incubation.

Each structure is given as a SMILES string. Where two headings read alike, the source gives them in different places.

Turning to `CCOC(=O)c1ccc(-c2nc(-c3ccccc3)c(C)s2)cc1` [GZ22], the EC50 in experiment [1] (setting [3]) is 82 nM; in experiment [2], 383 nM. In addition, in experiment [1], the “binding-curve upper asymptote (coactivator recruitment), RARα” value (shortened to “binding-curve upper asymptote … RARα”) is “lower asymptotes”. Moreover, the “expression of epithelial phenotype marker cytokeratin 8” value with TERA2.cl.SP12 cells was “more effective”. For the same molecule, the “neuronal differentiation by TUJ-1 staining” value in the experiment with TERA2.cl.SP12 cells (10 μM, Fig. 7C) is reported as “very low activity”.
For `CCOCCOc1nc(-c2ccc(C(=O)O)cc2)sc1C` [GZ18], the EC50 in experiment [1] (setting [3]) is 15.1 nM; in experiment [2], 141 nM. The “binding-curve upper asymptote … RARα” value in experiment [1] is given as “high curve asymptotes”. The “binding-curve upper asymptote (coactivator recruitment), RARγ” value in experiment [2] is given as “very low binding-curve upper asymptotes”. Further, the “expression of epithelial phenotype marker cytokeratin 8” value with TERA2.cl.SP12 cells is recorded as “more effective”. In the experiment on TERA2.cl.SP12 cells (10 μM, Fig. 7C), the “neuronal differentiation by TUJ-1 staining” value is given as “very low activity”.
Regarding `Cc1sc(-c2ccc(C(=O)O)cc2)nc1-c1ccc2c(c1)C(C)(C)CCC2(C)C` [GZ25], in experiment [1], the “binding-curve upper asymptote … RARα” value is recorded as “high curve asymptotes” and the EC50 stood at 8.2 nM. Also, in experiment [2], the EC50 is 98.9 nM and the “binding-curve upper asymptote (coactivator recruitment), RARγ” value was “high”. Further, in the experiment with TERA2.cl.SP12 cells, the “expression of epithelial phenotype marker cytokeratin 8” value is “not detectable”. In addition, the “expression of neuronal differentiation marker A2B5 (immunofluorescence)” value with TERA2.cl.SP12 cells (10 μM, after 7 days, Fig. 7C) is reported as “induced”. In addition, the “neuronal differentiation by TUJ-1 staining” value in the experiment with TERA2.cl.SP12 cells (10 μM, Fig. 7C) is reported as “most effective”.

The values are drawn from PMC5933457, “Probing biological activity through structural modelling of ligand-receptor interactions of 2,4-disubstituted thiazole retinoids” (Bioorganic & Medicinal Chemistry, 2018).
